The values that follow come from US20230091225A1, “Bifunctional chimeric heterocyclic compounds for targeted degradation of androgen receptors and use thereof” (HINOVA PHARMACEUTICALS INC., priority 2019, published 2023).

Where two headings read alike, the source gives them in different places. Where only a bound is given, the exact number is not on record here.

Holding throughout (assay type): cell-based
The test system of one test is LNCaP/AR cells. The test is described as follows: Inhibition of proliferation of LNCaP/AR prostate cancer cells (CCK-8).
The target in test [1] is T1, androgen receptor (AR) (Homo sapiens, UniProt P10275).
T1 sequence (P10275 1-920): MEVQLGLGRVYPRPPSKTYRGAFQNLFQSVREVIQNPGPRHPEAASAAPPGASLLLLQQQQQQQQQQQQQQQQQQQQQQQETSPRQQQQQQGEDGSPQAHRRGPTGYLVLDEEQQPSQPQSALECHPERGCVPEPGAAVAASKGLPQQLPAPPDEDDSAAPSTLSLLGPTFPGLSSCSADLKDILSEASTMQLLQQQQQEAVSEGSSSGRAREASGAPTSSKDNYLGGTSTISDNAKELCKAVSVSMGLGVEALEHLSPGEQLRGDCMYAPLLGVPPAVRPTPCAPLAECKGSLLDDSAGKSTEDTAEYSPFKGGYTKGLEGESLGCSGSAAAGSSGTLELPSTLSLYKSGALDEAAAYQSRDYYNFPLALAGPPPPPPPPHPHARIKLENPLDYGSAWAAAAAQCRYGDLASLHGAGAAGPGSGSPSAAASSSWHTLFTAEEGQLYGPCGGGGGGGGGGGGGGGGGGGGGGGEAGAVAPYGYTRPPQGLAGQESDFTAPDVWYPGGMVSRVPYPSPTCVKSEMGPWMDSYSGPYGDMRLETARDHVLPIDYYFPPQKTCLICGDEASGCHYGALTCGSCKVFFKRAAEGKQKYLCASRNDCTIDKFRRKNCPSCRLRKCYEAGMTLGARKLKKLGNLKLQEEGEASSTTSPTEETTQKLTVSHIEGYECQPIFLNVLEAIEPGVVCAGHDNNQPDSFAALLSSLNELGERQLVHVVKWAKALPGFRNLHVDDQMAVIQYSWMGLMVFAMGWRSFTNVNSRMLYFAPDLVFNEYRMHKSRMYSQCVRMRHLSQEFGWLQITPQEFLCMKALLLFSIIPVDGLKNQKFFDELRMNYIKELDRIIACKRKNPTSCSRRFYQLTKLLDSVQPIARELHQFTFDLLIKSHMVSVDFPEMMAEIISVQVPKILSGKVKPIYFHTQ
The test is described as follows: Degradation of androgen receptor (AR) protein in VCaP cells by Western blot. The conditions noted are these: percentage of degraded AR at 100 nM, VCaP cells, 16 h. An outline of the steps:
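VCaP cells (5×10^5/well) were seeded overnight, then treated in duplicate for 16 h with compound in 0.1% DMSO final. Lysates (30 μg protein) were immunoblotted for AR (D6F11) with β-actin as loading control, detected by ECL chemiluminescence.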
Background: A western blot detects proteins with antibodies after separation by electrophoresis.

Test [2] addresses T1, androgen receptor (AR). Put plainly: Degradation of androgen receptor (AR) protein in VCaP cells by ELISA.
Where [3] appears, read: proliferation of LNCap/AR cells, 6 days, CCK-8, read-out: IC50.
The mark [4] stands for this setting: 144 h, proliferation of LNCap/AR cells, 6 days, CCK-8, read-out: IC50.

In the case of “2-chloro-4-((1r,4r)-4-(2-(4-((4-(3-(2,6-dioxopiperidin-3-yl)-2-methyl-4-oxo-3,4-dihydroquinazoline-7-yl)piperazin-1-yl)methyl)piperidin-1-yl)-5-oxo-5H-pyrrolo[3,4-b]pyridin-6(7H)-yl)cyclohexyl)oxy)benzonitrile [Compound 309]”, the IC50 in the test with LNCaP/AR cells (setting [3]) lay within 100 to 500 nM.
On to `Cc1ncsc1-c1ccc([C@H](C)NC(=O)[C@@H]2C[C@@H](O)CN2C(=O)[C@@H](NC(=O)COCCCC#Cc2ccc3c(c2)CN([C@H]2C(C)(C)[C@H](Oc4ccc(C#N)c(Cl)c4)C2(C)C)C3=O)C(C)(C)C)cc1` [Compound 21], for which, in the test with LNCaP/AR cells (setting [4]), the IC50 was less than 100 nM.
Turning to `Cc1ncsc1-c1ccc([C@H](C)NC(=O)[C@@H]2C[C@@H](O)CN2C(=O)[C@@H](NC(=O)C2(C(=O)NCCCC#Cc3ccc4c(c3)CN(C3C(C)(C)C(Oc5ccc(C#N)c(Cl)c5)C3(C)C)C4=O)CC2)C(C)(C)C)cc1` (some centres unmarked) [Compound 25], in the test on LNCaP/AR cells (setting [3]), the half-inhibitory concentration (IC50) was less than 100 nM.
For `Cc1ncsc1-c1ccc([C@H](C)NC(=O)[C@@H]2C[C@@H](O)CN2C(=O)[C@@H](NC(=O)COCCCCC#Cc2ccc3c(c2)CN([C@H]2C(C)(C)[C@H](Oc4ccc(C#N)c(Cl)c4)C2(C)C)C3=O)C(C)(C)C)cc1` [Compound 29], in the test on LNCaP/AR cells (setting [4]), the IC50 was less than 100 nM.
For `Cc1ncsc1-c1ccc([C@H](C)NC(=O)[C@@H]2C[C@@H](O)CN2C(=O)[C@@H](NC(=O)COCCCCn2cc(-c3ccc4c(c3)CN([C@H]3C(C)(C)[C@H](Oc5ccc(C#N)c(Cl)c5)C3(C)C)C4=O)nn2)C(C)(C)C)cc1` [Compound 30, (2s,4r)-1-((s)-2-(2-(4-(4-(2-((1r,3r)-3-(3-chloro-4-cyanophenoxy)-2,2,4,4-tetramethylcyclobutyl)-1-oxoisobutanol-5-yl)-1H-1,2,3-triazol-1-yl)butoxy)acetamido)-3,3-dimethylbutyryl)-4-hydroxy-N-((S)-1-(4-(4-methylthiazol-5-yl)phenyl)ethyl)pyrrolidine-2-carboxamide], the IC50 in the test on LNCaP/AR cells (setting [3]) was 100 to 500 nM.
As for `Cc1ncsc1-c1ccc([C@H](C)NC(=O)[C@@H]2C[C@@H](O)CN2C(=O)[C@@H](NC(=O)COCCOC(C)C#Cc2ccc3c(c2)CN([C@H]2C(C)(C)[C@H](Oc4ccc(C#N)c(Cl)c4)C2(C)C)C3=O)C(C)(C)C)cc1` (some centres unmarked) [Compound 37], the concentration for half-maximal inhibition (IC50) in the test with LNCaP/AR cells (LNCaP/AR, 144 h) is less than 100 nM.
Take `Cc1ncsc1-c1ccc([C@H](C)NC(=O)[C@@H]2C[C@@H](O)CN2C(=O)[C@@H](NC(=O)C2(OCCCCC#Cc3ccc4c(c3)CN(C3C(C)(C)C(Oc5ccc(C#N)c(Cl)c5)C3(C)C)C4=O)CC2)C(C)(C)C)cc1` (some centres unmarked) [Compound 41]: the concentration for half-maximal inhibition (IC50) in the test with LNCaP/AR cells (setting [3]) is less than 100 nM.
As to `N#Cc1ccc(O[C@H]2CC[C@H](NC(=O)c3cnc(N4CCC(CN5CCC6(CC5)CN(c5cc7c(cc5F)C(=O)N(C5CCC(=O)NC5=O)C7=O)C6)CC4)nn3)CC2)cc1Cl` (some centres unmarked) [Compound 158], at androgen receptor (AR) [1], the inhibition at 0.1 µM is greater than 80%. Besides, the 50% degradation concentration (DC50) on androgen receptor (AR) [2] (AR degradation, VCaP cells, 16 h, ELISA, Table 3-2, read-out: DC50) is less than 10 nM. On androgen receptor (AR) [2] (VCaP), this molecule returned a Dmax greater than 80%.
In the case of `CN(C1CCN(c2ccc3c(c2)C(=O)N(C2CCC(=O)NC2=O)C3=O)CC1)C1CC(C#Cc2ccc3c(n2)CN([C@H]2C(C)(C)[C@H](Oc4ccc(C#N)c(Cl)c4)C2(C)C)C3=O)C1` (some centres unmarked) [Compound 331], at androgen receptor (AR) [1], the inhibition at 0.1 µM was in the range of 25 to 49%.
On the same count and under the same terms, under `CN(C1CCN(c2cc3c(cc2F)C(=O)N(C2CCC(=O)NC2=O)C3=O)CC1)C1CC(C#Cc2ccc3c(n2)CN([C@H]2C(C)(C)[C@H](Oc4ccc(C#N)c(Cl)c4)C2(C)C)C3=O)C1` (some centres unmarked) [Compound 332] stands 50 to 79%; under `CC1(C)[C@H](Oc2ccc(C#N)c(Cl)c2)C(C)(C)[C@H]1N1Cc2nc(C#CC3CCN(CC4CCN(c5cc6c(cc5F)C(=O)N(C5CCC(=O)NC5=O)C6=O)CC4)CC3)ccc2C1=O` (some centres unmarked) [Compound 333], 50 to 79%.
Still for that read-out and setting: as for `CC1(C)[C@H](Oc2ccc(C#N)c(Cl)c2)C(C)(C)[C@H]1N1Cc2nc(C#CC3CCN(CC4CN(c5cc6c(cc5F)C(=O)N(C5CCC(=O)NC5=O)C6=O)C4)CC3)ccc2C1=O` (some centres unmarked) [Compound 334], the figure is greater than 80%.

Usually IC50 stands for the concentration that inhibits the measured activity by half. In general, inhibition refers to the relative decrease from the control value, in per cent. Low values mean little suppression, high ones strong suppression. By DC50 is commonly meant the midpoint of the concentration-degradation curve. For orientation: Dmax means the greatest extent of degradation seen.
